{"source": "patent US20090258046A1", "about": "“COMPOSITION, FORMULATIONS AND KIT FOR TREATMENT OF RESPIRATORY AND LUNG DISEASE WITH NON-GLUCOCORTICOID STEROIDS AND/OR UBIQUINONE AND A BRONCHODILATING AGENT” (priority 2001, published 2009)", "key": {"HT-29 SF cells [1]": {"system": "HT-29 SF cells", "assay": "Reversal of DHEA-mediated growth inhibition by medium supplements", "assay_type": "cell-based, human", "conditions": "25 μM DHEA, 48 hour treatment; 2 μM MVA, 80 μM SQ, 15 μg/ml CH, RN 30 μM each, DN 20 μM each", "method": "RN plus DN, or MVA plus CH plus RN, or medium that was not supplemented. All compounds were obtained from Sigma Chemical Co. (St. Louis, Mo.) Cholesterol was solubilized in ethanol immediately before use. […] In A, the medium was supplemented with 2 μM MVA, 80 μM SQ, 15 μg/ml CH, or MVA plus CH (MVA+CH) or was not supplemented (CON). […] RN plus DN (RN+DN); or MVA plus CH plus RN (MVA+CH+RN). […] Columns represent cell growth percentage of untreated controls; bars represent SEM. Increase in cell number in untreated controls was […]. Each data point represents quadruplicate dishes from four independent experiments. Statistical analysis was performed using Student's t test κ ρ<0.01; φ ρ<, 0.001; compared to treated controls."}, "HT-29 SF cells [2]": {"system": "HT-29 SF cells", "assay": "Reversal of DHEA effect on cell cycle by medium supplements (flow cytometry)", "assay_type": "cell-based, human", "conditions": "for prevention of DHEA-induced S phase depletion: 2 FM MVA, 15 Fg/ml CH, RN 30 FM"}, "[3]": {"system": "Intracellular adenosine in various Rat Tissues", "assay": "In vivo effect on tissue adenosine levels in rats (HPLC of 1,N6-ethenoadenosine)", "set-up": "species or system Fischer 344 rats", "conditions": "for Intracellular adenosine, Brain / Intracellular adenosine, Heart / Intracellular adenosine, Liver: mean ± SEM", "source_text": "[…] […] Hearts were removed from animals and flash frozen in liquid nitrogen with 10 seconds of death. Liver and lungs were removed en bloc and flash frozen with 30 seconds of death. Brain tissue was subsequently dissected."}, "HT-29 SF cells [4]": {"system": "HT-29 SF cells", "assay": "DHEA effect on cell cycle distribution (flow cytometry, propidium iodide)", "assay_type": "cell-based, human"}, "HT-29 SF cells [5]": {"system": "HT-29 SF cells", "assay": "DHEA effect on cell growth (Coulter counter cell number)", "quoted_text": "Cell cultures, HT-29 SF cells, which represent a subline of HY-29 cells (ATCC, Rockville, Md.) and are adapted for growth in completely defined serum-free PC-1 medium (Ventrex, Portland, Me.), were obtained. Stock cultures were maintained in this medium at 37° (in a humidified atmosphere containing 5% CO2)."}, "purified G6PDH": {"molecular_target": "purified G6PDH (Homo sapiens, UniProt P11413)", "sequence (P11413 whole entry)": "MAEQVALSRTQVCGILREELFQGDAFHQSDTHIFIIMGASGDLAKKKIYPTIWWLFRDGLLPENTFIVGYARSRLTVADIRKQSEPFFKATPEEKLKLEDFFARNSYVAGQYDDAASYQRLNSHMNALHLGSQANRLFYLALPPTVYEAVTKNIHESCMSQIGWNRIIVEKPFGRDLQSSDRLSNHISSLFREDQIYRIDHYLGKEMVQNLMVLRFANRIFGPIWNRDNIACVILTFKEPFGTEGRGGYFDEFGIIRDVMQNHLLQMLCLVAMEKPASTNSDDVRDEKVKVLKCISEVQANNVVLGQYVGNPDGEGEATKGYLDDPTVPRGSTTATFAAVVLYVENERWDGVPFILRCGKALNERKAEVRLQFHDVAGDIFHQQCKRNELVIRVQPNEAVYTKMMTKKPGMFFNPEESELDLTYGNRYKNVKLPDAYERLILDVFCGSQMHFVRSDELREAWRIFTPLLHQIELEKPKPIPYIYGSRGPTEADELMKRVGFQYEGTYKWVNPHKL", "assay": "Enzymatic assay of purified G6PDH (absorbance at 340 nm)", "conditions": "in vitro", "quoted_text": "All experiments were repeated 4 times.\nA second group was added different concentrations of a CoQ of long side chain (in triplicate), and a third group received a CoQ of short side chain (in triplicate), both at various doses in the μM range.\nThe reaction was started by addition of the enzyme, and the increase in absorbance at 340 nm was measured for 5 minutes. Each data point was conducted in triplicate, and the fill experiment was repeated 4 times."}, "[6]": {"conditions": "high dose methyltestosterone daily for two weeks, versus control"}, "[7]": {"conditions": "methyltestosterone 40 mg/kg by gavage once daily for fourteen days"}, "[8]": {"conditions": "folinic acid 50 mg/kg intraperitoneally once daily for fourteen days"}}, "data": [{"smiles": "CC(C)=CCC/C(C)=C/CC/C(C)=C/CC/C=C(\\C)CC/C=C(\\C)CCC=C(C)C", "note": "[SQ, squalene]", "values": [{"measurement": "reversal of DHEA-induced growth inhibition", "setting": "HT-29 SF cells [1]", "result": "no such effect"}]}, {"smiles": "C[C@@](O)(CCO)CC(=O)O", "note": "[MVA, mevalonic acid]", "values": [{"measurement": "reversal of DHEA-induced growth inhibition", "setting": "HT-29 SF cells [1]", "result": "partially overcome"}, {"measurement": "prevention of DHEA-induced S phase depletion", "setting": "HT-29 SF cells [2]; 48 hours", "result": "partially prevented"}, {"measurement": "prevention of DHEA-induced S phase depletion", "setting": "HT-29 SF cells [2]; 72 hours", "result": "not"}, {"measurement": "prevention of DHEA-induced rounded shape", "setting": "HT-29 SF cells [2]; supplement added to culture medium (data not shown)", "result": "prevented"}]}, {"smiles": "C[C@]12CCC(=O)C=C1CC[C@@H]1[C@@H]2CC[C@@]2(C)[C@H]1CC[C@]2(C)O", "note": "[Methyl-testosterone, methyltestosterone]", "values": [{"measurement": "effect on adenosine across organs", "setting": "[3]; administered daily for two weeks", "result": "multi-organ depletion of adenosine"}, {"measurement": "depletion of adenosine in brain", "setting": "[3]; [6]", "result": 34, "unit": "%"}, {"measurement": "depletion of adenosine in heart", "setting": "[3]; [6]", "result": 22, "unit": "%"}, {"measurement": "Intracellular adenosine, Brain", "setting": "[3]; [7]", "result": "0.42 ± 0.06", "unit": "nmols/mg protein"}, {"measurement": "Intracellular adenosine, Heart", "setting": "[3]; [7]", "result": "8.3 ± 1.0", "unit": "nmols/mg protein"}, {"measurement": "Intracellular adenosine, Liver", "setting": "[3]; [7]", "result": "16.5 ± 0.9", "unit": "nmols/mg protein"}, {"measurement": "Intracellular adenosine, Brain", "setting": "[3]; methyltestosterone 120 mg/kg", "result": "0.32 ± 0.03", "unit": "nmols/mg protein"}, {"measurement": "Intracellular adenosine, Heart", "setting": "[3]; methyltestosterone 120 mg/kg", "result": "6.0 ± 0.4", "unit": "nmols/mg protein"}, {"measurement": "Intracellular adenosine, Liver", "setting": "[3]; methyltestosterone 120 mg/kg", "result": "5.1 ± 0.5", "unit": "nmols/mg protein"}]}, {"smiles": "C[C@]12CC[C@H](O)CC1=CC[C@@H]1[C@@H]2CC[C@]2(C)C(=O)CC[C@@H]12", "note": "[DHEA, dehydroepiandrosterone]", "values": [{"measurement": "proportion of cells in S phase", "setting": "HT-29 SF cells [4]; 200 μM DHEA, after 24 hours, continued through the treatment", "result": "decreased"}, {"measurement": "overall effect on cell cycle", "setting": "HT-29 SF cells [4]; 25-200 μM DHEA, 24-72 hours", "result": "G1 block in HT-29 SF cells in a time- and dose-dependent manner"}, {"measurement": "G2M phase cells", "setting": "HT-29 SF cells [4]; 25 or 50 μM DHEA, after 48 hours", "result": "transient increase"}, {"measurement": "percentage of cells in G1 phase", "setting": "HT-29 SF cells [4]; 25 or 50 μM DHEA, after 72 hours", "result": "increased"}, {"measurement": "cell cycle distribution", "setting": "HT-29 SF cells [4]; 25 or 50 μM DHEA, after the initial 24 hours", "result": "unchanged"}, {"measurement": "proportion of cells in S phase", "setting": "HT-29 SF cells [4]; 25 or 50 μM DHEA, as time of exposure increased", "result": "progressively decreased"}, {"measurement": "cell morphology", "setting": "HT-29 SF cells [2]; DHEA exposure (data not shown)", "result": "rounded shape"}, {"measurement": "proportion of cells in S phase", "setting": "HT-29 SF cells [2]; with increasing exposure time (48 and 72 hours)", "result": "progressively reduced"}, {"measurement": "inhibition of growth", "setting": "HT-29 SF cells [5]; 0-200 μM DHEA, 0-72 hours", "result": "time- and dose-dependent inhibition of growth"}, {"measurement": "exposure time after which cell number was reduced compared to controls", "setting": "HT-29 SF cells [5]; 12.5 μM DHEA", "result": 72, "unit": "h"}, {"measurement": "exposure time after which cell number was reduced compared to controls", "setting": "HT-29 SF cells [5]; 25 μM DHEA", "result": 48, "unit": "h"}, {"measurement": "exposure time after which cell number was reduced compared to controls", "setting": "HT-29 SF cells [5]; 50 μM DHEA", "result": 48, "unit": "h"}, {"measurement": "exposure time after which cell number was reduced compared to controls", "setting": "HT-29 SF cells [5]; 200 μM DHEA", "result": 24, "unit": "h"}, {"measurement": "inhibition of G6PDH enzyme activity (in words)", "setting": "purified G6PDH; various doses in the μM range, compared to controls", "result": "inhibited the enzyme activity in a statistically significant manner"}, {"measurement": "inhibition of the activity of purified G6PDH compared to control", "setting": "purified G6PDH; concentration not given", "result": 72, "unit": "%"}]}, {"smiles": "CC(C)CCC[C@@H](C)[C@H]1CC[C@H]2[C@@H]3CC=C4C[C@@H](O)CC[C@]4(C)[C@H]3CC[C@]12C", "note": "[CH, cholesterol]", "values": [{"measurement": "reversal of DHEA-induced growth inhibition", "setting": "HT-29 SF cells [1]", "result": "no such effect"}, {"measurement": "prevention of DHEA-induced S phase depletion", "setting": "HT-29 SF cells [2]; 48 hours", "result": "very little effect"}, {"measurement": "prevention of DHEA-induced S phase depletion", "setting": "HT-29 SF cells [2]; 72 hours", "result": "no effect"}]}, {"smiles": "Nc1nc(=O)c2c([nH]1)NCC(CNc1ccc(C(=O)N[C@@H](CCC(=O)O)C(=O)O)cc1)N2C=O", "note": "(mixture of isomers) [Folinic Acid, Folinic acid]", "values": [{"measurement": "Intracellular adenosine, Brain", "setting": "[3]; [8]", "result": "0.72 ± 0.09", "unit": "nmols/mg protein"}, {"measurement": "Intracellular adenosine, Heart", "setting": "[3]; [8]", "result": "12.4 ± 2.1", "unit": "nmols/mg protein"}, {"measurement": "Intracellular adenosine, Liver", "setting": "[3]; [8]", "result": "16.4 ± 2.4", "unit": "nmols/mg protein"}, {"measurement": "effect on adenosine levels, all organs studied", "setting": "[3]; folinic acid administered alone", "result": "increase"}, {"measurement": "effect of coadministration on steroid-mediated adenosine depletion", "setting": "[3]; folinic acid coadministered with DHEA or methyltestosterone", "result": "completely abrogated"}]}]}
